Data from US11957766B2, “HNQO1-activatable fluorescent probe for imaging cancer cells in-vitro and in-vivo” (Texas Tech University System, priority 2019, dated 2024).

Key:
[1] = tested on: Lewis Lung carcinoma (LLC) tumors; experiment: In vivo and ex vivo NIRF imaging with NIR-ASM in Lewis Lung carcinoma (LLC) lung cancer model; parameters: species or system C57BL/6 mice
Description: Whether still in-situ or already disseminated, early diagnosis of cancer is an essential requirement for successful therapy. Although NQO1 is expressed at higher levels in cancers compared to a diminished or absent status in normal tissues, the diagnostic potential of existing NQO1 specific fluorescent probes has not been realized. Therefore, the inventors evaluated the non-invasive diagnostic ability of NIR-ASM in a metastatic syngeneic lung cancer model to mimic the clinical situation. Lung cancer was established in C57BL/6 mice by injecting Lewis Lung carcinoma (LLC) cells (0.5×10^6 per animal) intravenously. This cell line is highly tumorigenic and is primarily used to model metastasis as well as evaluate the efficacy of chemotherapeutic agents in vivo.^44 The LLC cells have ˜80 units of NQO1 activity compared to <10 units in healthy mouse lungs.^45 Two weeks after the implantation, the animals received NIR-ASM (5 mg/kg) intravenously. […] There are several routes for drug elimination from the body and the majority of drugs are eliminated by pathways that involve the kidneys.
In vivo bioimaging. The animal study protocol was approved by the Institutional Animal Use and Care Committee (IACUC), Texas Tech University Health Sciences Center, Protocol number: 07050. All experimental protocols used in this study were approved by IACUC, Texas Tech University Health Sciences Center and all the methods were carried out according to the committee guidelines. Female athymic nude mice (nu/nu, 4-6 weeks) were purchased from Charles River Laboratories (Wilmington, MA, USA). BALB/c57 mice were provided by Dr. Constantinos Mikelis of our University. To establish A549 or MDA-MB-231 xenografts, a total of 5×10^6 cells (in 0.1 ml of serum-free media and Matrigel (1:1)) were subcutaneously injected into the flanks of the mice. For developing orthotopic lung cancer models, LLC cells (0.5×10^6) were intravenously injected into the tail veins of female BALB/c57 mice. All animals were monitored for activity, physical condition, body weight, and tumor growth. To detect endogenous NQO1 activity, NIR-ASM was dissolved in a vehicle of composition, PEG-300:EtOH:saline (60:30:10, v/v/v) and given intravenously through tail vein injection. The animals were imaged at different time intervals with excitation/emission filters of 500/640 nm using the IVIS Lumina XR Imaging system. At the end of the experiments, the xenografted tumors, hearts, lungs, livers, kidneys, spleens, and brains were removed and imaged to confirm the signal locations. Fluorescence represented in log values of radiance is photons per second per square centimeter per steradian.

A549, H460 cells = experiment: Fluorescence microscopy of NIR-ASM in NQO1 expressing cancer cells; type: cell-based, human
Method: Detection of NQO1 in live cells. Inspired by the excellent biocompatibility, the inventors investigated its performance in both NQO1 expressing cancer cells (A549, H460) and NQO1 non-expressing normal cells (IMR90, HUVEC). All cells were incubated with NIR-ASM (10 μM) for 60 min, washed with PBS and were imaged under a confocal microscope after counterstaining the nuclei with Hoechst 33342 (FIG. 12A). […] The higher expression of NQO1 protein in A549 and H460 cells and its absence in normal cells, IMR90 and HUVEC as found with western blot analysis correlated with the probe reactivity in cells (FIG. 12B). […] Cell sorting using flow cytometry is a well-established technology in clinical diagnostics and biomedical research. To assess the applicability of the NIR-ASM to rapidly detect and quantify in both cancer and normal cells based on NQO1 expression, the probe was incubated with cell suspensions for 60 min, and about 1×10^4 cells were analyzed on a flow cytometer.
Fluorescence imaging. Both cancer and normal cells were seeded into 6-well plates and cultured overnight in respective media at 37° C. Cells were treated with 10 μM NIR-ASM and incubated at 37° C. for 60 min. They were then treated with nuclear stain Hoechst 33342 for 5 min. Finally, the medium was replaced with PBS and the live cells were imaged using a multiphoton confocal fluorescence microscope (λex/em=488/644 nm). […]

subcutaneous U87MG tumor = experiment: Fluorescence imaging of hNQO1 in subcutaneous U87MG tumor-bearing mice with NQ-DCP; type: in vivo
Method: Fluorescence Imaging of hNQO1 in U87MG Tumor-Bearing Mice. With the prominent performance of NQ-DCP in cellular fluorescence imaging, the inventors further applied this probe to evaluate its capacity for the noninvasive fluorescence imaging of hNQO1 in vivo. NQ-DCP (10 mg/kg, 50 μL) was intravenously injected into sub-cutaneous U87MG tumor-bearing mice. The whole-body fluorescence was imaged with a Caliper IVIS Spectral imaging system. […] The host organs and tumor from the mice administered with NQ-DCP were harvested and their fluorescence was analyzed ex vivo using the IVIS to confirm the tumor-selective targeting ability of NQ-DCP. […] The application of NQ-DCP to image hNQO1 activity was also investigated in intracranial U87MG tumor-bearing mice. Tumor xenografts were established by implanting exponentially growing U87MG-Luc cells by stereotaxic injection into mice brain and the tumor growth was assessed by quantitative bioluminescence using IVIS (in vivo imaging system) (FIG. 7C). […] Therefore, the inventors performed intracranial injection of NQ-DCP (100 μM, 5 μL) to both healthy and tumor-bearing mice, the brain was isolated after 30 min and fluorescence images acquired.
Four-week-old male and female NCG and athymic nude mice were housed in a micro ventilated caging system in a sterile environment and fed ad-libitum with standard irradiated research rodent diet and water. […]

Row | cell permeability (A549, H460 cells; inferred from intracellular activation) | Structure (SMILES) | time of maximum fluorescence intensity ([1]; 5 mg/kg intravenous) [min] | NIRF signal intensity of tumor-bearing lungs compared to other selected organs ([1]; 5 mg/kg intravenously, two weeks after implantation) | route of elimination ([1]; fluorescence observed in kidneys during ex vivo NIRF imaging) | fluorescence in the lungs of healthy mice ([1]; non-tumor-bearing mouse, intravenous NIR-ASM) | fluorescence signal in NQO1 expressing cancer cells (A549, H460 cells; 10 μM, 60 min) | time of maximum fluorescence in the tumor (subcutaneous U87MG tumor; 10 mg/kg, 50 μL, intravenous) [min] | ex vivo fluorescence in tumor and organs (subcutaneous U87MG tumor; organs harvested after intravenous NQ-DCP, 30 min)
1 | confirm the cell permeability | CC1=C(C)C(=O)C(C(C)(C)CC(=O)Nc2ccc(/C=C/C3=CC(=C(C#N)C#N)CC(C)(C)C3)cc2)=C(C)C1=O [NIR-ASM, (E)-N-(4-(2-(3-(dicyanomethylene)-5,5-dimethylcyclohex-1-en-1-yl)vinyl)phenyl)-3-methyl-3-(2,4,5-trimethyl-3,6-dioxocyclohexa-1,4-dien-1-yl)butanamide] | 30 | more than 100 fold | renal excretion might play an important role | no fluorescence observed | bright NIR fluorescence signal |  | 
2 |  | CC1=C(C)C(=O)C(C(C)(C)CC(=O)Oc2ccc(/C=C/C3=CC(=C(C#N)C#N)CC(C)(C)C3)cc2)=C(C)C1=O [NQ-DCP] |  |  |  |  |  | 30 | selectively observed in the tumor and not in any other major organs
